Results on 127 substances are retold here after article PMC10447463, “Data-mining unveils structure–property–activity correlation of viral infectivity enhancing self-assembling peptides” (Nature Communications, 2023).

This experiment relates to HIV-1 infection of TZM-bl cells. In words: HIV-1 infectivity enhancement assay, β-galactosidase luminescence. It is filed as cell-based. To be noted: input.xlsx of the Pattern-Analysis script; infectivity relative to EF-C (peptide 59 = 1.00).
Regarding KIKIQIAMWQ [compound 85], the infectivity was 0.39. Next, CKFKFQF [compound 6]: 1.23; CEIEIQI [compound 2]: 0.0279. Turning to CSISIQI [compound 132], the infectivity is reported as 0.0559. To CKIKIQINM [compound 98] belongs 1.59; to PPFHPPPFHP [compound 38], 0.0177. Turning to RGDSGGGGGGKIKIQIC [compound 127], the infectivity is recorded as 0.87. To KFKFQFF [compound 121] belongs 0.12; to KIKIQIC [compound 125], 0.61; to CKAKAQANM [compound 11], 0.03. With QCKIKIQI [compound 22], the infectivity stood at 0.11. Next, KIKIKIKIWW [compound 139]: 0.37.

As for CKIW [compound 152], the infectivity is recorded as 0.05. To HHHHKAKAKAKAYYYY [compound 124] belongs 0.0131; to QCKFKQFF [compound 14], 0.0124; to KYKGAIIGNIK [compound 34], 0.0031. To KIKQIINMWQ [compound 65] belongs 0.35; to KLKQLL [compound 95], 0.00739; to CKFKQFF [compound 17], 0.00675. On to NMWQKIKIQI [compound 72], for which the infectivity worked out at 0.21. To QCKAKAQANM [compound 20] belongs 0.0146.

As to KIKIQINMAQ [compound 83], the infectivity was 0.21. Next, NMWQKFKFQF [compound 63]: 0.27; CEFEFQF [compound 90]: 0.00521; KIKIQIMQWN [compound 160]: 0.72.

On to KAKAQANMWQ [compound 66], for which the infectivity is reported as 0.00715.

KAKAQA [compound 78]: the infectivity is 0.0181.

As for KIKIKIQI [compound 115], the infectivity came out at 0.10. Next, CKFKQFFNM [compound 16]: 0.41; KIKQII [compound 107]: 0.00492. To SISISRRI [compound 44] belongs 0.0283. Next, KFKFEFEF [compound 106]: 0.0284; CQFQFQF [compound 112]: 0.35; KIKIQINMW [compound 75]: 2.16. For the substance TKTLTKTL [compound 41], the infectivity came to 0.0213. For the substance RGDKIKIQINMC [compound 111], the infectivity was found to be 1.07. To HHHHKIKIKIKIYYYY [compound 144] belongs 0.68; to RGDCKIKIQINM [compound 142], 0.24. As for KAKAQANM [compound 136], the infectivity stood at 0.009. Next, RPRGLLLGNLR [compound 36]: 0.05; KIKIKIKIWWWW [compound 129]: 0.59. Next, KIKIKIKI [compound 130]: 0.0326; QCKAKAQANMWQ [compound 19]: 0.07; KYKYQY [compound 88]: 0.01.

On to HHHHEIEIEIEI [compound 87], for which the infectivity is recorded as 0.03. To KIKIQINAWQ [compound 84] belongs 0.54. To EFEFQF [compound 89] belongs 0.00327; to CKFKFQFW [compound 148], 0.88; to MKIKIQINMWQ [compound 143], 0.42. Next, KIKIQI [compound 79]: 0.07. Consider KNDKND [compound 52], for which the infectivity is on record as 0.0105. With KLKLQLL [compound 120], the infectivity came out at 0.00698. Next, FDPFDPFDP [compound 40]: 0.0234; KFKFQF [compound 80]: 0.06. Next, KFKFQFNM [compound 8]: 0.47; CKFKFQFNMW [compound 91]: 0.96; HHHHKIKIKIKIWWWW [compound 140]: 0.38. To KIKIQINM [compound 76] belongs 0.36.

On to QCKFKFQFNM [compound 26], for which the infectivity amounted to 0.51. Next, CKFKFQFNM [compound 5]: 1.24. Next, CSISIQINM [compound 135]: 0.20. Consider HGEHGEHGE [compound 54], for which the infectivity is 0.019. CRFRFQF [compound 28]: the infectivity is recorded as 0.34. To KFKQFFINMWQ [compound 158] belongs 0.92. Turning to RGDKIKIQI [compound 97], the infectivity is 0.0157.

Regarding RLRLTLC [compound 30], the infectivity worked out at 0.05. Next, RGEKIKIQINM [compound 33]: 0.24. Next, ILKNLSRSRKIKIQINMWQ [compound 154]: 0.32; CKIKIQI [compound 99]: 1.02; QCKAKAQA [compound 21]: 0.0253. With KIKIQINMWWQ [compound 156], the infectivity was 3.21.

Regarding MKIKIQINM [compound 141], the infectivity worked out at 0.27. Next, MKFKFQF [compound 58]: 0.0637. Next, KAKAKAQA [compound 116]: 0.00871. As to KIKIQIN [compound 77], the infectivity is given as 0.27. Next, CETMYDKILKNLSRSR [compound 57]: 0.02. To KIKIQINMWWWQ [compound 157] belongs 2.75; to KVKVKVQV [compound 64], 0.0173; to KIKIKIQINMWQ [compound 163], 0.79.

As for CKFKFQFNMWQ [compound 4], the infectivity turned out to be 1.16. Next, KIEIQINM [compound 108]: 0.0348; EIEIQINMWQ [compound 162]: 0.13; CEIEIQINMWQ [compound 133]: 0.22. In the case of QCKFKQFFNM [compound 13], the infectivity is recorded as 0.43. Turning to CKIKQII [compound 100], the infectivity is reported as 0.04. Consider HIHIQIC [compound 29], for which the infectivity is 0.27. To RGDSKIKIQIC [compound 126] belongs 0.60.

For the substance RGDKIRGDKI [compound 51], the infectivity was 0.00748. Next, KAKQAANMWQ [compound 69]: 0.03; CKIKIQINMWQ [compound 96]: 0.70.

Regarding KIKIQIMWNQ [compound 159], the infectivity was 0.56. To CHLHLQL [compound 56] belongs 0.10. Next, KIKQIIN [compound 74]: 0.04; QCKIKQII [compound 24]: 0.00647.

Consider HRRHFRHKITKKK [compound 45], for which the infectivity is 0.0136. For CKIKQIIRGD [compound 110], the infectivity is recorded as 0.05. As for HHHHKAKAKAKAWWWW [compound 151], the infectivity came to 0.09. To KIKIQIW [compound 146] belongs 0.14. To KIKIQIII [compound 122] belongs 0.35; to KIKIQII [compound 113], 0.0187; to NMWQKIKQII [compound 71], 0.0253. Next, HHHHKIKIQINMYYYY [compound 138]: 1.11; KFKFQFNMWQ [compound 67]: 0.76; CKYKYQY [compound 92]: 0.04. On to KFKQFFNMWQ [compound 68], for which the infectivity is 0.09. To KIKIQINMWA [compound 81] belongs 0.69; to QCKIKQIINM [compound 23], 0.35; to CKIKIQIII [compound 1], 0.98.

On to CKFKQFFNMWQ [compound 15], for which the infectivity is 0.61.

Consider EIKIQINM [compound 149], for which the infectivity turned out to be 0.10. Next, HGDKCHGDKC [compound 35]: 0.01.

Consider MDQMDQMDQMDQMDQ [compound 39], for which the infectivity stood at 0.00427. Next, RGDKIKIQINMWQ [compound 105]: 0.76. With CEIEIQINM [compound 134], the infectivity turned out to be 0.0651. Next, KFKFQFW [compound 147]: 0.16; IKVAVKIKIQINM [compound 150]: 0.50. As to CKFC [compound 50], the infectivity is reported as 0.011. On to QCKFKFQF [compound 27], for which the infectivity worked out at 0.77. Consider KVKVQVV [compound 119], for which the infectivity came out at 0.00912. Regarding NMWQKVGTPL [compound 70], the infectivity was 0.0247. Regarding QCKIKQIINMWQ [compound 59], the infectivity turned out to be 1.00.

HGEHGE [compound 53]: the infectivity came out at 0.00641. To CKIKQIINM [compound 3] belongs 0.50. Next, HLHLPLL [compound 31]: 0.01. To KWKWQW [compound 93] belongs 0.0145; to CEFEFQFNMWQ [compound 131], 0.14.

With CKFQC [compound 48], the infectivity came to 0.0227.
